According to patent publication EP1247803A2, “Indolinone compounds suitable for modulation of protein kinases” (Sugen, Inc., priority 1996, dated 1998):

Tests used:
PDGF-R = PDGF-R (Homo sapiens, UniProt P09619); experiment: PDGF-R ELISA; type: cell-based
From the text: A PDGF-R ELISA is described in International Patent Publication No. WO 96/40116, published December 19, 1996 by Tang et al.

EGFR = molecular target: T1, EGFR (Homo sapiens, UniProt P00533); experiment: EGFR ELISA assay (in vitro kinase activity, EGFR captured from A431 cell lysate); type: biochemical; parameters: concentration or dose not given beside the values
T1 construct: Add 7 ug A431 cell lysate per well (EGFR source); endogenous in cells; host or cells: A431
Procedure, shortened: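 EGFR from A431 lysate was captured on plates coated with anti-EGFR antibody. Compounds were added 30 min before a 5 min phosphorylation with 3 µM ATP/5 mM MnCl2, which was stopped with 20 mM EDTA. Phosphotyrosine was detected with rabbit anti-phosphotyrosine, then a peroxidase-conjugated secondary and ABTS/H2O2, read at 410 nm.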

MET = MET biochemical kinase assay; parameters: species or system human; concentration or dose not given beside the values
Procedure, shortened: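 Immunocaptured MET autophosphorylation, read colorimetrically (TMB) via HRP anti-phosphotyrosine antibody. Kinase reaction initiated with buffer containing ATP and divalent metals after compound addition to plate-bound receptor from lysates.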

T1 sequence (P00533 25-1210): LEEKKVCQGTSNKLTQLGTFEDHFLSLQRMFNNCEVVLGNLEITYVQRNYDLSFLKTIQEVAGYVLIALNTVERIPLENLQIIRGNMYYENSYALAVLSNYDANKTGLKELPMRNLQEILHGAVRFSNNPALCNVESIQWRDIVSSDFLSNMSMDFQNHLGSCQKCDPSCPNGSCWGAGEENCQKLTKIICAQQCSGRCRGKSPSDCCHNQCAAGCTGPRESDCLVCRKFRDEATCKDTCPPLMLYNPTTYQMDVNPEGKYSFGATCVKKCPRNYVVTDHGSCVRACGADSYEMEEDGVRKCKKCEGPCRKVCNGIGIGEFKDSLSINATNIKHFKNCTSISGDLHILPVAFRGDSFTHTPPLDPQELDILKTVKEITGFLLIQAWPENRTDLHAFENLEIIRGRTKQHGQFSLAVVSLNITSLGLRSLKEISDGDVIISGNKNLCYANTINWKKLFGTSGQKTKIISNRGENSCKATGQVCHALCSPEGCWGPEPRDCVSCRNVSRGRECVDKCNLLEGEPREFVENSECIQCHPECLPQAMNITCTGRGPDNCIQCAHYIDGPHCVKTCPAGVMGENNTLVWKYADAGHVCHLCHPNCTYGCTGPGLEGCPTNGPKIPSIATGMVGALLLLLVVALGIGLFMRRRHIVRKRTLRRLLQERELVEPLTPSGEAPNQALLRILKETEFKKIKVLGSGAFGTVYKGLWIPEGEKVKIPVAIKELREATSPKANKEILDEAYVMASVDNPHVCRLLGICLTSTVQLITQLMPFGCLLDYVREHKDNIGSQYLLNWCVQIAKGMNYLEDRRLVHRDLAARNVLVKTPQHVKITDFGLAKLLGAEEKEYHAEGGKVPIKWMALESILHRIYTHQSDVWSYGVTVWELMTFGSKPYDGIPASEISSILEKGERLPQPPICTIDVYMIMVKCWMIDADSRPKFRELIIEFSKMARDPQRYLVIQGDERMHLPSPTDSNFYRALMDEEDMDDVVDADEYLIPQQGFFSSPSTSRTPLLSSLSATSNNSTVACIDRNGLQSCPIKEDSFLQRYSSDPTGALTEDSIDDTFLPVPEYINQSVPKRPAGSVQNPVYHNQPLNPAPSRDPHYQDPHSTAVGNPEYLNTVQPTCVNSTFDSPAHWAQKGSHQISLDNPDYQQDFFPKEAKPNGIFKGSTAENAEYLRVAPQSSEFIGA
Chain of PDGF-R (P09619 33-1106, species assumed): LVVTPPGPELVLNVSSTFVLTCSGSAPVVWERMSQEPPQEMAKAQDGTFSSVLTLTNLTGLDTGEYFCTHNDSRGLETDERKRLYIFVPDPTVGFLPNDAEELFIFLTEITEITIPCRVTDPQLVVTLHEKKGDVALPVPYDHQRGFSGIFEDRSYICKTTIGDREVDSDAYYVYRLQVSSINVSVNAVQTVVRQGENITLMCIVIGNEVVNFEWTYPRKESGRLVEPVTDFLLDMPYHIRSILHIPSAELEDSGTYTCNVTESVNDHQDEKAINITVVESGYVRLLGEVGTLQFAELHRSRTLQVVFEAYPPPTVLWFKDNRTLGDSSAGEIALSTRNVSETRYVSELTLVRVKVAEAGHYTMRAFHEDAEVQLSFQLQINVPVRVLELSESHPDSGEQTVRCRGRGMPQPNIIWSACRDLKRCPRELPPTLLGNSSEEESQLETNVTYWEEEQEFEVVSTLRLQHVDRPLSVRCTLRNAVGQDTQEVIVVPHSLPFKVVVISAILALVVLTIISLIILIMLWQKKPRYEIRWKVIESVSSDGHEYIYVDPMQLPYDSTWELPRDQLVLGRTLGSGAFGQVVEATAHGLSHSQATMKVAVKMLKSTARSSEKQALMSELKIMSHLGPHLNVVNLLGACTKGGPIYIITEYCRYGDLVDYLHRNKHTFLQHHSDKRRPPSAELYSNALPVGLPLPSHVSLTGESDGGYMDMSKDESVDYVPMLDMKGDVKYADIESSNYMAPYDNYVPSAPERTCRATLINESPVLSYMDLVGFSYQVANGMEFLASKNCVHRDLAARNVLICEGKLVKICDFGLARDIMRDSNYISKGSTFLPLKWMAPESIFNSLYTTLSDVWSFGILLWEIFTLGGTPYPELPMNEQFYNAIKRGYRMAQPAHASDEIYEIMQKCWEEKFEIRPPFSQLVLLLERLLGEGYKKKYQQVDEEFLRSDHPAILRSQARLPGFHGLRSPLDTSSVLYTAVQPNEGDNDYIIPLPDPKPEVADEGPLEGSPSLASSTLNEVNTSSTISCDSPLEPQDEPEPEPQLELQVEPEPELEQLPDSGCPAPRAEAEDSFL

| Structure (SMILES) | PDGF Kinase %Inhibition (PDGF-R) | Biochem EGFR %Inhibition (EGFR) | Met Kinase % Inhibition (MET) |
| --- | --- | --- | --- |
| COc1ccc(C=C2C(=O)Nc3ccc(I)cc32)c(OC)c1OC [10730/B02] | 5.4% | 10.4% | 66.3% |
| COc1cc(OC)c(OC)cc1C=C1C(=O)Nc2ccc(I)cc21 [10730/B03] | 17.3% | 46.8% | 78.3% |
| COc1cc(C=C2C(=O)Nc3ccc(I)cc32)cc(OC)c1OC [10730/B04] | 7.2% | 36.5% | 73.2% |
| CC(=O)n1cc(C=C2C(=O)Nc3ccc(I)cc32)c2ccccc21 [10730/B05] | -2.9% | 8.5% | 71.1% |
| O=C1Nc2ccc(I)cc2C1=Cc1coc2ccc(Cl)cc2c1=O [10730/B06] | 7.6% | 25.0% | 71.3% |
| O=C1Nc2ccc(I)cc2C1=Cc1ccc(-c2ccccc2Cl)o1 [10730/B07] | 2.4% | 57.1% | 63.1% |
| O=C1Nc2ccc(I)cc2C1=Cc1cc2ccccc2nc1Cl [10730/B08] | 0.2% | 48.4% | 91.8% |
| O=C1Nc2ccc(I)cc2C1=Cc1coc2c(Br)cc(Br)cc2c1=O [10730/B09] | 15.1% | 14.2% | 70.6% |
| COC1CC(C=C2C(=O)Nc3ccc(I)cc32)C(OC)O1 (stereo not drawn) [10730/B10] | 19.0% | 15.8% | 69.5% |
| Cc1cc(C=C2C(=O)Nc3ccc(I)cc32)oc1C [10730/B11] | -13.9% | 70.2% | 81.7% |
| COc1ccc(C=C2C(=O)Nc3ccc(Br)c(C)c32)c(OC)c1OC [10730/C02] | 26.5% | 2.7% | 31.2% |
| COc1cc(OC)c(OC)cc1C=C1C(=O)Nc2ccc(Br)c(C)c21 [10730/C03] | 36.5% | -12.1% | 43.2% |
| COc1cc(C=C2C(=O)Nc3ccc(Br)c(C)c32)cc(OC)c1OC [10730/C04] | 15.5% | 0.1% | 43.2% |
| CC(=O)n1cc(C=C2C(=O)Nc3ccc(Br)c(C)c32)c2ccccc21 [10730/C05] | 8.5% | -9.8% | 46.1% |
| Cc1c(Br)ccc2c1C(=Cc1coc3ccc(Cl)cc3c1=O)C(=O)N2 [10730/C06] | 7.6% | 8.5% | 34.7% |
| Cc1c(Br)ccc2c1C(=Cc1ccc(-c3ccccc3Cl)o1)C(=O)N2 [10730/C07] | 1.0% | 20.3% | 37.4% |
| Cc1c(Br)ccc2c1C(=Cc1cc3ccccc3nc1Cl)C(=O)N2 [10730/C08] | 8.5% | 24.3% | 56.5% |
| Cc1c(Br)ccc2c1C(=Cc1coc3c(Br)cc(Br)cc3c1=O)C(=O)N2 [10730/C09] | 18.1% | 28.2% | 42.9% |
| COC1CC(C=C2C(=O)Nc3ccc(Br)c(C)c32)C(OC)O1 (stereo not drawn) [10730/C10] | 44.4% | 20.5% | 40.3% |
| Cc1cc(C=C2C(=O)Nc3ccc(Br)c(C)c32)oc1C [10730/C11] | 16.4% | 38.4% | 66.6% |

| Structure (SMILES) | PDGF Kinase %Inhibition (PDGF-R) | Biochem EGFR %Inhibition (EGFR) | Met Kinase % Inhibition (MET) |
| --- | --- | --- | --- |
| CNS(=O)(=O)c1ccc2c(c1)C(=Cc1ccc(OC)c(OC)c1OC)C(=O)N2 [10730/D02] | 24.3% | 18.6% | 34.7% |
| CNS(=O)(=O)c1ccc2c(c1)C(=Cc1cc(OC)c(OC)cc1OC)C(=O)N2 [10730/D03] | 19.0% | 9.9% | 34.2% |
| CNS(=O)(=O)c1ccc2c(c1)C(=Cc1cc(OC)c(OC)c(OC)c1)C(=O)N2 [10730/D04] | 20.8% | 10.4% | 33.6% |
| CNS(=O)(=O)c1ccc2c(c1)C(=Cc1cn(C(C)=O)c3ccccc13)C(=O)N2 [10730/D05] | -1.6% | 12.6% | 38.1% |
| CNS(=O)(=O)c1ccc2c(c1)C(=Cc1coc3ccc(Cl)cc3c1=O)C(=O)N2 [10730/D06] | -2.0% | 35.3% | 55.9% |
| CNS(=O)(=O)c1ccc2c(c1)C(=Cc1ccc(-c3ccccc3Cl)o1)C(=O)N2 [10730/D07] | 5.0% | 43.0% | 52.5% |
| CNS(=O)(=O)c1ccc2c(c1)C(=Cc1cc3ccccc3nc1Cl)C(=O)N2 [10730/D08] | 12.9% | 44.9% | -13.6% |
| CNS(=O)(=O)c1ccc2c(c1)C(=Cc1coc3c(Br)cc(Br)cc3c1=O)C(=O)N2 [10730/D09] | -1.6% | 45.1% | 59.1% |
| CNS(=O)(=O)c1ccc2c(c1)C(=CC1CC(OC)OC1OC)C(=O)N2 (stereo not drawn) [10730/D10] | -3.3% | 16.7% | 18.5% |
| CNS(=O)(=O)c1ccc2c(c1)C(=Cc1cc(C)c(C)o1)C(=O)N2 [10730/D11] | -0.7% | 2.0% | 9.7% |
| COc1ccc(C=C2C(=O)Nc3ccc(S(=O)(=O)Nc4ccc(C(F)(F)F)cc4)cc32)c(OC)c1OC [10730/E02] | 16.4% | 17.7% | 18.8% |
| COc1cc(OC)c(OC)cc1C=C1C(=O)Nc2ccc(S(=O)(=O)Nc3ccc(C(F)(F)F)cc3)cc21 [10730/E03] | 14.6% | 65.3% | 53.3% |
| COc1cc(C=C2C(=O)Nc3ccc(S(=O)(=O)Nc4ccc(C(F)(F)F)cc4)cc32)cc(OC)c1OC [10730/E04] | 18.6% | 13.5% | 35.2% |
| CC(=O)n1cc(C=C2C(=O)Nc3ccc(S(=O)(=O)Nc4ccc(C(F)(F)F)cc4)cc32)c2ccccc21 [10730/E05] | 28.7% | 15.8% | 49.0% |
| O=C1Nc2ccc(S(=O)(=O)Nc3ccc(C(F)(F)F)cc3)cc2C1=Cc1coc2ccc(Cl)cc2c1=O [10730/E06] | 26.0% | 1.5% | 52.8% |
| O=C1Nc2ccc(S(=O)(=O)Nc3ccc(C(F)(F)F)cc3)cc2C1=Cc1ccc(-c2ccccc2Cl)o1 [10730/E07] | 30.0% | 18.8% | 37.1% |
| O=C1Nc2ccc(S(=O)(=O)Nc3ccc(C(F)(F)F)cc3)cc2C1=Cc1cc2ccccc2nc1Cl [10730/E08] | 48.4% | 6.2% | 40.3% |
| O=C1Nc2ccc(S(=O)(=O)Nc3ccc(C(F)(F)F)cc3)cc2C1=Cc1coc2c(Br)cc(Br)cc2c1=O [10730/E09] | 20.3% | 21.7% | 33.9% |
| COC1CC(C=C2C(=O)Nc3ccc(S(=O)(=O)Nc4ccc(C(F)(F)F)cc4)cc32)C(OC)O1 (stereo not drawn) [10730/E10] | 39.6% | 9.3% | 63.6% |
